The text below walks through data of patent publication US20040077656A1, “Quinolines and nitrogenated derivatives thereof substituted in 4-position by a piperazine-containing moiety and their use as antibacterial agents” (priority 2000, published 2004).

Counter-ions that a name gives are not always drawn. Like-named read-outs stand apart in the source and are kept apart here.

The test system of the test is S. aureus Oxford, S. aureus WCUH29, S. pneumoniae 1629, S. pneumoniae N1387, S. pneumoniae ERY 2. As to the kind of experiment: MIC of test compounds against various organisms. Format: cell-based. The method, then:
The MIC (μg/ml) of test compounds against various organisms was determined: S. aureus Oxford, S. aureus WCUH29, S. pneumoniae 1629, S. pneumoniae N1387, S. pneumoniae ERY 2.

Regarding `COc1ccc2nccc([C@@H](O)CN3CCN(CCNC(=O)c4cccs4)CC3)c2c1` [Example 7, Thiophene-2-carboxylic acid (2-{14[(R)-2-hydroxy-2-(6-methoxy-quinolin-4-yl)-ethyl]-piperazin-1-yl}-ethyl)-amide Dioxalate Salt], the MIC (against one or more of S. aureus Oxford, S. aureus WCUH29, S. pneumoniae 1629, S. pneumoniae N1387, S. pneumoniae ERY 2, read-out: MIC) was less than 1 µg/mL.

Take `COc1ccc2nccc([C@@H](O)CN3CCN(CCCCc4ccccc4)CC3)c2c1` [Example 12, (R)-1-(6-Methoxy-quinolin-4-yl)-2-[4-(4-phenyl-butyl)piperazin-1-yl]-ethanol Dioxalate]: the MIC is less than 1 µg/mL.

As a reminder, the MIC is the least concentration at which growth counts as inhibited.
